In patent US20160030373A1, “2-AAA as a Biomarker and Therapeutic Agent for Diabetes” (THE GENERAL HOSPITAL CORPORATION, priority 2013, published 2016):

Assays:
C57B/L6 male mice [1] = experiment: Fasting plasma insulin levels (ELISA) after 2-AAA treatment; format: in vivo; details: after 5 weeks of 2-AAA; increase seen in HFD animals
Procedure: FIG. 5 is a graph depicting fasting plasma insulin levels in 2-AAA mice fed either a standard chow (left) or high-fat diet (right) measured following completion of the 2-AAA treatment (5 weeks) in the mice on both diets (n=12 mice per condition) (*p<0.05).
(§1) Fasting insulin levels in mice were measured by an ELISA kit (Crystal Chem Inc., Downers Grove Ill.). After 5 weeks of 2-AAA treatment, and following a 6-hour fast, each group of mice was administered an intra-peritoneal glucose tolerance test (IPGTT; 1.5 mg/g of body weight; 75 mg/mL of glucose solution) or an insulin tolerance test (ITT; 0.00075 U of insulin/g of body weight, 0.15 U/ml insulin solution, Sigma-Aldrich, St. Louis, Mo.). For the IPGTT, venous blood samples were obtained from the tail vein immediately prior to glucose injection and then serially at 30, 60, and 120 minutes following the injection. For the ITT, venous blood samples were obtained from the tail vein immediately prior to the insulin injection and then serially at 15, 30, 45 and 60 minutes following the injection.
(§2) Additional studies were performed using acute physiologic challenges, including acute glucose and insulin administration. As expected, mice fed a HFD had more pronounced glucose excursions following the glucose challenge (FIG. 4). […]

[2] = system: Islets from male C57BL/6J mice; experiment: Insulin secretion from isolated mouse islets; format: cell-based; details: 30 μM 2-AAA for 6 hours; 2.5 mmol/l glucose; normalized to islet content
Procedure: FIG. 9 is a graph depicting insulin secretion from islets isolated from male C57BL/6J mice following incubation with 30 μM 2-AAA for 6 hours. Insulin was assayed using the Meso Scale Discovery multi array assay system for mouse/rat total insulin (Gaithersburg, Md., USA). Secretion was normalized to islet content. (n=3, p=0.016)
Islets from male C57BL/6J mice were isolated by collagenase digestion of the pancreas, purified by Ficoll density gradient and then handpicked. Mouse islets were cultured for 24 hours as previously described (26). For insulin secretion experiments, 15 islets were placed in each microcentrifuge tube and incubated in islet secretion buffer containing (in mmol/1) 120 NaCl, 5 KCl, 1 CaCl2, 1.2 MgCl2, 24 NaHCO3, 10 HEPES, and 2.5 glucose, bubbled with 95% O2/5% CO2 and supplemented with 0.5% (wt/vol) BSA. Experiments were performed by incubating islets in 1 ml of secretion buffer in the presence or absence of 30 μM 2-AAA for 6 hours at 37° C., 5% CO2. Insulin was assayed using the Meso Scale Discovery multi array assay system for mouse/rat total insulin (Gaithersburg, Md., USA). Secretion was normalized to islet content.

C57B/L6 male mice [3] = experiment: Intra-peritoneal glucose tolerance test (IPGTT) after chronic 2-AAA treatment; format: in vivo; details: IPGTT 1.5 mg/g; mice fed SCD and HFD for 5 weeks or greater
Procedure: FIG. 4 is a graph depicting plasma glucose levels in 2-AAA mice fed either a standard chow (left) or high-fat diet (right) following IPGTT challenge after completion of the 2-AAA chronic treatment in mice fed either the standard chow or high-fat diet. (n=12 mice per condition) (*p<0.05; **p<0.01).
as §1, §2

Beta TC6 (BTC6) cells = experiment: Insulin secretion by BTC6 pancreatic beta cell line; format: cell-based, mouse; details: for insulin secretion: 100 μM, 2.5 mM glucose
Procedure: FIG. 8A is a graph depicting percent insulin secretion by BTC6 cells following incubation with 2-AAA at concentrations ranging from 0 to 100 μM for 0.5 to 72 hours.
FIG. 8B is a graph depicting the effects of 2-AAA (30 μM), clonidine (100 μM) and phentolamine (100 μM) on insulin secretion by BTC6 cells.
To investigate the connection between 2-AAA and the pancreas, insulin production by a pancreatic beta cell line that was acutely and chronically exposed to 2-AAA. Beta TC6 (BTC6) cells, an established model to examine insulin secretion (mouse insulinoma beta-TC-6 (ATCC® CRL-11506™) from ATCC (Manassas, Va.)) (27-29), were used at passage number 4-7, grown in DMEM (ATCC 2002-30), 15% FBS, with penicillin/streptomycin (100 IU/ml/100 μg/ml). Cells were plated on 24 well collagen plates at 40,000 cells per well, incubated with 2-AAA at varying concentrations ranging from 0 to 100 μM for 0 to 72 hours to assess whether this compound increases insulin secretion in a time and/or dose dependent fashion. On the day of experimentation, the cells were washed with PBS and the media was changed to DMEM without FBS or glucose to which 0.1% BSA was added. After 1 hour of incubation, this media was changed to serum free media containing 2.5 mM of glucose. Insulin production was measured in the supernatant after 1 additional hour of incubation. To assess the time response relationship, 2-AAA was added to the cells after plating on collagen and incubated for 0.5, 2, 6, and 72 hours.

C57B/L6 male mice [4] = experiment: Insulin tolerance test (ITT, acute insulin challenge) after 2-AAA treatment; format: in vivo; details: ITT 0.00075 U insulin/g; SCD and HFD
Procedure: FIGS. 6A and 6B are graphs depicting plasma glucose levels 2-AAA mice fed either a standard chow (left) or high-fat diet (right) measured following acute insulin challenge (n=15 per condition).
as §1
Additional studies were performed using acute physiologic challenges, including acute glucose and insulin administration. As expected, mice fed a HFD had more pronounced glucose excursions following the glucose challenge (FIG. 4). In mice fed both the SCD and HFD for 5 weeks or greater, peak glucose concentrations following the glucose challenge were lower in the 2-AAA treated mice. […]

C57B/L6 male mice [5] = experiment: Fasting plasma glucose in mice given 2-AAA chronically via drinking water; format: in vivo; details: for fasting glucose levels: 2-AAA 500 mg/kg/day via drinking water, mean ± SEM
Procedure: FIGS. 2A and B are graphs depicting fasting plasma glucose levels in 2-AAA in mice fed either a standard chow (2A) or high-fat diet (2B). Fasting plasma glucose levels were measured weekly in mice fed either a standard chow (left) or high-fat diet (right) beginning at 6 weeks of age, with simultaneous 2-AAA treatment via drinking water (500/mg/kg/day) or water alone for the subsequent 5 weeks. (n=24 mice per condition) (*p<0.05; **p<0.01; ***p<0.001).
The effect of a Western-style diet on circulating 2-AAA levels in mice was examined. C57BL/6 male mice (Jackson Laboratories, Bar Harbor, Me.) were housed in separate cages with free access to food and water. Mice were fed a standard chow diet containing 22.5% protein, 52% carbohydrates, 6% fat, 6% ash and 4% fiber (Prolab Isopro RMH 3000, Brentwood, Mo.) or a high-fat diet containing 20 kcal % protein, 20 kcal % carbohydrate and 60 kcal % fat (DIO formula, D12492, Research Diets, Inc, New Brunswick, N.J.) as indicated. The total energy equivalent was 3.46 kcal/gm for the standard chow diet and 5.24 kcal/gm for the high fat diet.
(§3) Intervention studies in mice were completed to examine whether 2-AAA might play a contributory or compensatory role in glucose homeostasis by performing 2-AAA. For this study, four independent cohorts of 24 C57B/L6 male mice entered the study protocol at 6 weeks of age. Two cohorts received the standard chow diet and two cohorts received a high-fat diet. Half of the mice assigned to each diet received 2-AAA (500 mg/kg/day equivalent to a starting dose of 12.03±0.30 mM) via the drinking water for up to five weeks. Pre-weighed food and water were administered to each cage. Food and water intake was monitored weekly. Mice supplemented with 2-AAA had 33% higher plasma levels of this metabolite by one week of treatment (p=0.018).
Fasting plasma glucose levels were measured weekly in mice fed either a standard chow (left) or high-fat diet (right) beginning at 6 weeks of age, with simultaneous 2-AAA treatment via drinking water (500/mg/kg/day) or water alone for the subsequent 5 weeks. […]

[6] = Food intake and weight in control and 2-AAA treated mice; format: in vivo; details: 2-AAA 500 mg/kg/day via drinking water, up to 5 weeks
From the text: FIGS. 3A and 3B are graphs depicting serial weights and food intake in control and 2-AAA treated animals.
as §3
Fasting plasma glucose levels were measured weekly in mice fed either a standard chow (left) or high-fat diet (right) beginning at 6 weeks of age, with simultaneous 2-AAA treatment via drinking water (500/mg/kg/day) or water alone for the subsequent 5 weeks. (n=24 mice per condition) (*p<0.05; **p<0.01; ***p<0.001). For mice on the SCD, fasting glucose levels were 109.5±3.8 mg/dL for the 2-aminoadipic treated animals as compared to 124.5±4.9 mg/dL, for the untreated controls after 5 weeks (p<0.01, FIG. 2A). […]

[7] = Plasma 2-AAA level in mice supplemented with 2-AAA; format: in vivo; details: 500 mg/kg/day via drinking water; by one week of treatment; p=0.018
Procedure: as §3
For the perigonadal adipose tissue, metabolites were first extracted by mixing harvested tissues with 6 μL per 1 mg of adipose tissue of a MeOH:Chloroform solution (2:1 v/v). The extracted adipose tissues were then homogenized for 4 minutes at 25 Hz in a TissueLyser II. […] A calibration curve using 2-AAA d3 (C/D/N Isotopes Inc, Quebec Canada) was generated for absolute quantitation of 2-AAA in plasma and tissue samples. […] An isotopically labeled standard was used to facilitate absolute quantitation of the metabolite of interest in the setting of the different biological matrices.

| SMILES | fasting insulin levels versus untreated animals (C57B/L6 male mice [1]) | insulin release from islets [2] | peak glucose concentrations following the glucose challenge versus control (C57B/L6 male mice [3]) | insulin secretion from BTC6 cells (Beta TC6 (BTC6) cells; 2-AAA 0 to 100 μM for 0.5 to 72 hours) | incubation time at which augmented insulin secretion was evident (Beta TC6 (BTC6) cells; BTC6 cells) | peak insulin secretion relative to that of phentolamine (172±8% of control) (Beta TC6 (BTC6) cells; BTC6 cells, 2-AAA 30 μM vs phentolamine 100 μM) | effect on rate of decline in glucose levels following acute insulin challenge (C57B/L6 male mice [4]) | fasting glucose levels in treated mice versus water alone (C57B/L6 male mice [5]; both diets, p<0.001 by 2-way ANOVA after 5 weeks) | fasting glucose levels (C57B/L6 male mice [5]; mice on high-fat diet (HFD), at 5 weeks) | fasting glucose levels (C57B/L6 male mice [5]; mice on standard chow diet (SCD), after 5 weeks) | differences in food intake or weight between treated and control mice [6] | increase in plasma levels of 2-AAA versus unsupplemented mice [7] | insulin secretion (Beta TC6 (BTC6) cells; BTC6 cells) |
| --- | --- | --- | --- | --- | --- | --- | --- | --- | --- | --- | --- | --- | --- |
| N[C@H](CCCC(=O)O)C(=O)O (stereo in doubt) [2-AAA, 2-aminoadipic acid] | further augmented | release insulin | lower | induced insulin secretion from BTC6 cells in a dose and time dependent fashion | at least 6 hours | comparable | no effect | consistently lower | 134.5 ± 5.9 mg/dL | 109.5 ± 3.8 mg/dL | no significant differences | 33% |  |
| Clc1cccc(Cl)c1N=C1NCCN1 [clonidine, reference compound] |  |  |  |  |  |  |  |  |  |  |  |  | 60±3 % of control |
| Cc1ccc(N(CC2=NCCN2)c2cccc(O)c2)cc1 [phentolamine, reference compound] |  |  |  |  |  |  |  |  |  |  |  |  | 172±8 % of control |
